{
  "source": "patent US20030008358A1",
  "about": "“Method of producing L-serine by fermentation” (AJINOMOTO CO. INC, priority 1998, published 2003)",
  "key": {"[1]": {"system": "Brevibacterium flavum AJ13325", "test": "Growth of β-(2-thienyl)-DL-alanine resistant strains in the presence of β-(2-thienyl)-DL-alanine", "type": "cell-based", "conditions": "0.25 g/L of β-(2-thienyl)-DL-alanine", "method": "Similarly, the term “β-(2-thienyl)-DL-alanine resistance” refers to the property that a bacterium grows faster than the wild type in a medium containing β-(2-thienyl)-DL-alanine. For example, those strains that form colonies on a solid medium containing 0.25 g/L of β-(2-thienyl)-DL-alanine at 30° C. within 4 to 5 days are said to have β-(2-thienyl)-DL-alanine resistance.\nTo select B-(2-thienyl)-DL-alanine resistant strains from NG treated strains using Brevibacterium flavum AJ13377 as a parent strain, Brevibacterium flavum AJ13377 cells were NG treated and washed before their inoculation on a minimal medium for selection. The minimal medium for selection was a medium that contained 20 g of glucose, 1 g of ammonium sulfate, 1 g of potassium dihydrogen phosphate, 2.5 g of urea, 0.4 g of magnesium sulfate heptahydrate, 0.01 g of iron (II) sulfate heptahydrate, 0.01 g of manganese sulfate tetra- to pentahydrate, 50 μg of biotin, 200 μg of thiamin hydrochloride, 200 μg of nicotinic acid amide, and 250 mg of β-(2-thienyl)-DL-alanine per liter of distilled water. The NG treated mutant was incubated in the above-described medium at 30° C. for 5 to 10 days. The cell culture thus obtained was spread on a bouillon agar medium and incubated at 30° C. for 24 hours for colony formation. β-(2-Thienyl)-DL-alanine resistant strains were obtained from the strains that formed colonies. […]"}, "[2]": {"system": "3-PGDH derived from AJ13324 strain", "test": "Feedback inhibition of 3-PGDH from AJ13324 by L-serine", "type": "biochemical, Brevibacterium flavum", "conditions": "crude enzyme solution; FIG. 1", "method": "(§1) The activity of 3-PGDH can be determined, for example, by the measurement of a decrease in coenzyme NADH2 in a reverse reaction (E. Sugimoto and L. I. Pizer, JBC, 243, 2081, 1968) or synthesis of coenzyme NADH2 in a forward reaction (Salach H. J. Method in Enzymology, vol.9, 216-220, 1966) by absorbance at 340 nm.\n(§2) Brevibacterium flavum AJ13324, AJ13325 and AJ13327 were each incubated on a bouillon agar medium at 30° C. for 24 hours and a loopful of each microorganism was inoculated in a 500 ml shaking flask containing 50 ml of a fermentation medium having the composition shown in Table 2. As a control, the parent strains Brevibacterium flavum ATCC 14067 and AJ13377 were inoculated as a same manner as described above. The medium for inoculation was adjusted to pH 5.5 with sodium hydroxide and autoclaved at 115° C. for 15 minutes. […]\n(§3) The enzyme activity of 3-PGDH was measured by the method of Salach H. J. et al. (Method in Enzymology, vol 9, 216-220 (1966)).\n(§4) More specifically, 0.4 ml of 0.015 M NAD, 0.12 ml of 0.25 M EDTA (pH 9, NaOH), 0.1 ml of 0.05 M glutathione (pH 6, KOH), 0.5 ml of 1 M hydrazine (pH 9, acetate), 0.6 ml of 1 M Tris (pH 9, HCl), a suitable concentration of L-serine (0 to 40 mM), and water to make 2.3 ml, warmed to 25° C. in advance, were added. […] After stirring, the absorbance at 340 nm of the reaction mixture was measured for 30 seconds. […]"}, "[3]": {"system": "3-PGDH derived from AJ13377 strain", "test": "Feedback inhibition of 3-PGDH from AJ13377 by L-serine", "type": "biochemical, Brevibacterium flavum", "conditions": "crude enzyme solution; compared with wild type strain ATCC 14067; FIG. 1", "method": "as §1, §2, §3, §4"}, "[4]": {"system": "3-PGDH derived from AJ13327 strain", "test": "Feedback inhibition of 3-PGDH from AJ13327 by L-serine", "type": "biochemical, Brevibacterium flavum", "method": "as §1\nBrevibacterium flavum AJ13324, AJ13325 and AJ13327 were each incubated on a bouillon agar medium at 30° C. for 24 hours and a loopful of each microorganism was inoculated in a 500 ml shaking flask containing 50 ml of a fermentation medium having the composition shown in Table 2. As a control, the parent strains Brevibacterium flavum ATCC 14067 and AJ13377 were inoculated as a same manner as described above. The medium for inoculation was adjusted to pH 5.5 with sodium hydroxide and autoclaved at 115° C. for 15 minutes.\nAfter collecting cells from the culture broth of each strain, the cells were washed twice with physiological saline and suspended in 50 mM sodium phosphate buffer (pH 7.0) containing 2 mM dithiothreitol. After ice cooling, the suspension was subjected to a sonicator to fragment the cells and the resulting liquid was ultracentrifuged. The ultracentrifugaton was run at 45,000 rpm for 1 hour to obtain a crude enzyme solution.\nas §3\n[…] Then, 0.2 ml of the crude enzyme solution was added and the temperature was kept the same for 5 minutes. Thereafter, 0.5 ml of 0.1 M 3-PGA (3-phosphoglycerate disodium salt, pH 7, NaOH) was added. After stirring, the absorbance at 340 nm of the reaction mixture was measured for 30 seconds. The reaction was carried out at 25° C.\nFor the measurement of activity, Hitachi U-2000A spectrophotometer was used."}, "[5]": {"system": "3-PGDH derived from ATCC14067 strain (wild type)", "test": "Feedback inhibition of wild type 3-PGDH by L-serine", "type": "biochemical, Brevibacterium flavum", "conditions": "wild type coryneform bacterium 3-PGDH; 10 mM L-serine", "method": "as §1, §2, §3, §4"}, "[6]": {"system": "Brevibacterium flavum AJ13324 and AJ13327", "test": "Growth of azaserine resistant strains in the presence of azaserine", "type": "cell-based", "conditions": "0.25 g/L of azaserine", "method": "The term “azaserine resistance” refers to the property that a bacterium grows faster than the wild type in a medium containing azaserine. For example, those strains that form colonies on a solid medium containing 0.25 g/L of azaserine at 30° C. within 4 to 5 days are said to have azaserine resistance.\nTo select azaserine resistant strains from NG treated strains using Brevibacterium flavum AJ13377 as a parent strain, NG treated Brevibacterium flavum AJ13377 cells after washed were inoculated on a minimal medium for selection. The minimal medium for selection was a medium that contained 20 g of glucose, 1 g of ammonium sulfate, 1 g of potassium dihydrogen phosphate, 2.5 g of urea, 0.4 g of magnesium sulfate heptahydrate, 0.01 g of iron (II) sulfate heptahydrate, 0.01 g of manganese sulfate tetra- to pentahydrate, 50 μg of biotin, 200 μg of thiamin hydrochloride, 200 μg of nicotinic acid amide, and 250 mg of azaserine per liter of distilled water. The NG treated mutant was incubated in the above-described medium at 30° C. for 5 to 10 days. The cell culture thus obtained was spread on a bouillon agar medium and incubated at 30° C. for 24 hours for colony formation. Azaserine resistant strains were obtained from the strains that formed colonies. The mutants thus obtained included many strains that accumulated L-serine in considerable amounts at high yields. […]"}},
  "data": [
    {"smiles": "NC(Cc1cccs1)C(=O)O", "note": "(racemic) [β-(2-thienyl)-DL-alanine]", "values": [
      {"measurement": "growth in the presence of β-(2-thienyl)-DL-alanine", "setting": "[1]", "result": "able to grow"}
    ]},
    {"smiles": "N[C@@H](CO)C(=O)O", "note": "[L-serine]", "values": [
      {"measurement": "L-serine sensitivity of 3-PGDH", "setting": "[2]", "result": "more relieved of L-serine sensitivity"},
      {"measurement": "L-serine sensitivity of 3-PGDH", "setting": "[3]", "result": "relieved of L-serine sensitivity"},
      {"measurement": "3-PGDH activity retained in the presence of L-serine (relative to absence of L-serine)", "setting": "[4]; 80 mM L-serine", "result": "~100", "unit": "%"},
      {"measurement": "feedback inhibition of 3-PGDH by L-serine", "setting": "[4]; 80 mM L-serine, FIG. 1", "result": "completely desensitized"},
      {"measurement": "L-serine sensitivity of 3-PGDH", "setting": "[4]; crude enzyme solution, FIG. 1", "result": "relieved of L-serine sensitivity greatly"},
      {"measurement": "3-PGDH activity in the presence of L-serine", "setting": "[5]", "result": "almost completely inhibited"}
    ]},
    {"smiles": "[N-]=[N+]=CC(=O)OC[C@H](N)C(=O)O", "note": "[azaserine]", "values": [
      {"measurement": "growth in the presence of azaserine", "setting": "[6]", "result": "able to grow"}
    ]}
  ]
}
